Assays:
CK1δ [1] = target: T1, CK1δ (Homo sapiens, UniProt P48730); test: in vitro radiometric kinase assay ([…]-ATP, CK1 peptide substrate); format: biochemical
T1 construct: gene CSNK1D

CK1δ [2] = target: T1, CK1δ; test: in vitro radiometric kinase assay ([…]-ATP, CK1 peptide substrate); CRBN-dependent CK1δ degradation in cells; format: biochemical

T1 sequence (P48730 whole entry): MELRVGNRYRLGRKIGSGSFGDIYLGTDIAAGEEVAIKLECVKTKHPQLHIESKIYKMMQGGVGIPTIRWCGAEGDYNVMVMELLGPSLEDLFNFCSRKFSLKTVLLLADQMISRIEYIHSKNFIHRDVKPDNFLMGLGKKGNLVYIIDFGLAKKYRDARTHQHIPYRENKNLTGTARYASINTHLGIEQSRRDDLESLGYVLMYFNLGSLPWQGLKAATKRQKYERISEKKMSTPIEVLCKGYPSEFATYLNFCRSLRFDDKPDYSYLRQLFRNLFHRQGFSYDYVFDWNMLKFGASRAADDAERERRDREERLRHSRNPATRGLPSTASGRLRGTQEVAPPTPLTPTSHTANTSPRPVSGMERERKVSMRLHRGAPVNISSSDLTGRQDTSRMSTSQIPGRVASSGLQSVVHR

Row | Structure (SMILES) | IC50 (CK1δ [1]) | IC50 (CK1δ [2])
1 | O=C1CCC(N2C(=O)c3ccc(OCCCOCCC(=O)Nc4ccc(Cn5c(SCC(=O)Nc6nc7ccc(C(F)(F)F)cc7s6)nccc5=O)cc4)cc3C2=O)C(=O)N1 (stereo not shown) [P4d] | ~2200 nM | –
2 | Nc1ccc(Cn2c(SCC(=O)Nc3nc4ccc(C(F)(F)F)cc4s3)nccc2=O)cc1 [I9] | 3430 nM | –
3 | O=C1CCC(N2C(=O)c3cccc(OCCCOCCC(=O)Nc4ccc(Cn5c(SCC(=O)Nc6nc7ccc(C(F)(F)F)cc7s6)nccc5=O)cc4)c3C2=O)C(=O)N1 (stereo not shown) [P3d] | 1960 nM | –
4 | O=C1CCC(N2C(=O)c3cccc(NCCCCCC(=O)Nc4ccc(Cn5c(SCC(=O)Nc6nc7ccc(C(F)(F)F)cc7s6)nccc5=O)cc4)c3C2=O)C(=O)N1 (stereo not shown) [P1d] | – | 2160 nM
